Where “and” joins values, the source holds several entries; their conditions need not be identical. Equal entries are not always repeated. Where two headings read alike, the source gives them in different places.
What was measured:
[1] = test system: HCT116 (colorectal carcinoma cell line); assay: MTS cell viability assay, HCT116; assay type: cell-based, human; settings: 48 h of exposure, mean ± SEM
[2] = test system: A2780 (ovarian carcinoma cell line); assay: MTS cell viability assay, A2780; assay type: cell-based, human; settings: 48 h of exposure, mean ± SEM
[3] = test system: HCT116-DoxR (doxorubicin-resistant colorectal carcinoma cell line); assay: MTS cell viability assay, HCT116-DoxR;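 note: MTS colorimetric quantification of viable cells, with loss of viability tracked as complex concentration rises, in DMEM-grown HCT116-DoxR, a line whose resistance involves P-glycoprotein efflux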
Procedure: (§1) To assess the cytotoxicity of vanadium complexes in tumor and healthy cells, the MTS assay, a colorimetric method that allows the quantification of viable cells present in solution,[71] was performed.
Cell culture and maintenance
(§2) The A2780 cancer cell line (ovarian carcinoma) was purchased from Sigma-Aldrich (Madrid, Spain)
(§3) while HCT116 cancer cell line (colorectal carcinoma) and the normal human primary dermal
(§4) fibroblasts were obtained from American Type Culture Collection (ATCC®, Manassas, VA, USA).
(§5) HCT116 Dox-resistant cell line (HCT116-DoxR) was derived from HCT116 parental cells, as
(§6) All cells were cultured in Dulbecco’s modified Eagle medium (DMEM), except the A2780 cell line
(§7) which was cultured in RPMI (Roswell Park Memorial Institute) medium. Both media were
(§8) supplemented with 10% (v/v) fetal bovine serum (FBS) and 1% (v/v) of a Pen/Strep
(§9) (Penicillin/Streptomycin) solution. HCT116-DoxR cell medium was additionally supplemented with
(§10) All media and supplements were purchased from Thermo Fischer Scientific (Waltham, Massachusetts, USA).
(§11) (SANYO CO2 Incubator, Electric Biomedical Co., Osaka, Japan).
(§12) HCT116, HCT116-DoxR and A2780 cancer cell lines and normal human primary fibroblasts were
(§13) used in cellular viability assays. Cells were seeded in a density of 0.75×10^5 cells/mL into 96 well-
(§14) After the 24 h of incubation, complexes were
(§15) weight and immediately solubilized in 100% (v/v) DMSO and then, diluted for the final concentration
(§16) with cell culture medium. The medium in each 96 well-plates will be replaced by fresh medium
(§17) containing each vanadium complex (concentrations ranging from 0.01 µM to 50 µM). Culture medium
(§18) with 0.1% (v/v) DMSO and 0.4 µM Dox were used as negative and positive controls, respectively.

[4] = test system: normal human primary dermal fibroblasts; assay: MTS cell viability assay, fibroblasts
Procedure: as §1
Cell culture and maintenance
as §2, §3, §4, §5, §6, §7, §8, §9, §10, §11, §12, §13, §14, §15, §16, §17, §18

[5] = n-octanol/PBS buffer partition coefficient, shake-flask, UV-vis; settings: room temperature
Procedure: The lipophilicity of V(IV) complexes was investigated using the classical shake-flash method at room temperature in the two-phase system of immiscible solvents n-octanol/PBS buffer.[69],[70] The transfer of V(IV) compounds from the aqueous environment to the organic phase was monitored by UV–vis spectroscopy.
The n-octanol/PBS buffer partition coefficients (logP) were determined by shake-flash approach, and
the transfer of V(IV) compounds from the aqueous environment to the organic phase was monitored
by UV-Vis spectroscopy5,6. Solutions of 1–10 of concentrations in the range 10-100 M were prepared
in PBS buffer saturated with n-octanol from the freshly-prepared stock solution in DMSO (5mM or 50
mM), and their UV-Vis spectra were recorded. The solution of 1–10 in aqueous buffer (3 ml) were
mixed with n-octanol saturated with pH 7.4 aqueous buffer (3 ml), and the obtained mixtures were
stirred in a mechanical shaker for 30 min. The mixtures were allowed to stand at room temperature for
24 h, and after this time, the aqueous phases were separated, and the concentrations of 1–10 were
determined by measuring their UV-Vis spectra. For each complex, the highest energy absorption band was taken into consideration to determine the sample concentration.

HCT116-DoxR cells [6] = assay: Alexa Fluor 488-annexin V/PI apoptosis assay, flow cytometry; assay type: cell-based, human; settings: 48 h, complexes at IC50, cisplatin 5 μM, Dox 6 μM
caspase-8 = assay: Caspase-8 activity, IETD-pNA cleavage; assay type: cell-based, human; settings: HCT116-DoxR, 48 h; complexes at IC50, cisplatin 5 μM
Procedure: Since caspase-8 is an initiator caspase of the extrinsic apoptotic pathway, its activity was evaluated after HCT116-DoxR cells were exposed to complexes 5 and 8 (Figure 8).
The chromogenic substrate IETD-pNA, which results from the conjugation between the peptide IETD (Ile-Glu-Thr-Asp) and the chromophore p-nitroanilide (pNA), is cleaved by caspase-8 and releases pNA, which can be detected by measuring absorbance at 400 nm.[99] Therefore, if complexes 5 and 8 induce cell death through the extrinsic apoptotic pathway, there is an increase in absorbance at 400 nm compared to the control sample, corresponding to an increase in caspase-8 activity that is translated into the cleavage of the substrate IETD-pNA (Figure 8).
Antibody; Cell Signalling Technology, USA).
Assay Kit (Abnova Corporation, Walnut, CA, USA).
vanadium complexes at its IC50 concentrations.
Cells were then incubated
Flow Cytometer (Life Technologies, Carlsbad, USA).
HCT116-DoxR cell line was cultivated

HCT116-DoxR cells [7] = assay: Cell cycle progression, PI, flow cytometry; settings: HCT116-DoxR, 3, 9, 24, 32 h; complexes at IC50, cisplatin 5 μM, Dox 6 μM
HCT116-DoxR cells [8] = assay: Autophagy induction, Green Detection Reagent, flow cytometry; settings: 48 h, complexes at IC50, cisplatin 5 μM, Dox 6 μM
[9] = read-out: IC50 HCT116-DoxR, 48 h of exposure, MTS, mean ± SEM
[10] = read-out: IC50 fibroblasts, 48 h of exposure, MTS, mean ± SEM
[11] = Homo sapiens, 48 h, read-out: IC50 HCT116-DoxR (ligands)
[12] = Homo sapiens, Fibroblast, 48 h, read-out: IC50 fibroblasts (ligands)
[13] = read-out: IC50 HCT116-DoxR (ligands), free ligands, 48 h of exposure, mean ± SEM
[14] = read-out: IC50 fibroblasts (ligands), free ligands, 48 h of exposure, mean ± SEM

Structure (SMILES) | IC50 [1] [µM] | IC50 [2] [µM] | IC50 [3, 9] | IC50 [4, 10] [µM] | log P [5] | IC50 [3, 11] [µM] | IC50 [4, 12] [µM] | other results
O=C1[O][V](=[O])[O]C(=O)c2cccc1n2.c1ccc(-c2nc3ccccc3[nH]2)nc1 [complex 2, [VO(dipic)(pybim)]] | > 50 | 6.7 ± 0.02 | 31.4 ± 0.03 µM | 15.7 ± 0.04 | –0.10 |  |  | 
O=C1C(=O)c2cccnc2-c2ncccc21 [phendione] |  |  |  |  |  | 0.7 ± 0.01 | 1.8 ± 0.05 | 
O=C1[O][V](=[O])[O]C(=O)c2cccc1n2.c1c[nH]cn1.c1c[nH]cn1 [complex 10, [VO(dipic)(im)2]] | > 50 | 14.7 ± 0.02 | > 50 µM | 20.1 ± 0.05 | –1.28 |  |  | 
CC(C)(C)OO [TBHP, tert-butyl hydroperoxide, reference compound] |  |  |  |  |  |  |  | IC50 ([3]; Homo sapiens, 48 h, read-out: IC50 HCT116-DoxR): 42 µM
c1ccc(-c2nc3ccccc3[nH]2)nc1 [Pybim, 2-(2-pyridyl)benzimidazole] |  |  |  |  |  | 27.1 ± 0.04 | ~50 | 
c1ccc2c(c1)Sc1ccccc1N2c1ccnc2c1ccc1c(N3c4ccccc4Sc4ccccc43)ccnc12 [4,7-(phtiaz)2-phen, 4,7-phenothiazine-1,10-phenanthroline] |  |  |  |  |  |  |  | IC50 [3, 13]: > 50 µM; IC50 [4, 14]: > 50 µM
O=C1[O][V](=[O])[O]C(=O)c2cccc1n2.c1ccc2c(c1)Sc1ccccc1N2c1ccnc2c1ccc1c(N3c4ccccc4Sc4ccccc43)ccnc12 [complex 7, [VO(dipic)(4,7-(phtiaz)2-phen)]] | > 50 | 3.1 ± 0.03 | > 50 µM | 21.7 ± 0.08 | 0.62 |  |  | 
O=C(O)c1cccc(C(=O)O)n1 [Dipic, dipicolinate] |  |  |  |  |  |  |  | IC50 [3, 13]: > 50 µM; IC50 [4, 14]: > 50 µM
c1ccc(-c2ncc[nH]2)nc1 [Pyim, 2-(1H-imidazol-2-yl)pyridine] |  |  |  |  |  | > 50 | > 50 | 
O=C1[O][V](=[O])[O]C(=O)c2cccc1n2.c1ccc(-c2ccccn2)nc1 [complex 9, [VO(dipic)(bipy)]] | 44 ± 0.04 | 4.8 ± 0.02 | 39.2 ± 0.09 µM | 16.2 ± 0.04 | 0.13 |  |  | 
Clc1ccnc2c1ccc1c(Cl)ccnc12.O=C1[O][V](=[O])[O]C(=O)c2cccc1n2 [complex 4, [VO(dipic)(4,7-Cl2-phen)]] | 8.8 ± 0.02 | 2.2 ± 0.02 | ~9 µM and 9 µM | 9.2 ± 0.01 | 0.44 |  |  | 
N.N.[Cl][Pt][Cl] [cisplatin, reference compound] | 15.6 ± 5.3 | 1.9 ± 0.2 |  |  |  |  |  | early apoptosis (HCT116-DoxR cells [6]): 31.9 ± 4.6%; late apoptosis (HCT116-DoxR cells [6]): 10.0 ± 4.2%; necrosis (HCT116-DoxR cells [6]): 1.6 ± 0.7%; percentage of apoptosis (total) (HCT116-DoxR cells [6]): ~40%; caspase-8 activity vs 0.1% DMSO (caspase-8): higher level of caspase-8; cell cycle arrest / cytostatic effect (HCT116-DoxR cells [7]): cytostatic effect; increase of autophagic vesicles over the control (HCT116-DoxR cells [8]): ~2.3 fold
O=C1C(=O)c2cccnc2-c2ncccc21.O=C1[O][V](=[O])[O]C(=O)c2cccc1n2 [complex 3, [VO(dipic)(phendione)]] |  | 0.2 ± 0.02 | 1.3 ± 0.07 µM | 0.7 ± 0.02 | –0.16 |  |  | 
Clc1ccnc2c1ccc1c(Cl)ccnc12 [4,7-Cl2-phen, 4,7-dichloro-1,10-phenanthroline] |  |  |  |  |  | 16.4 ± 0.01 | 17.5 ± 0.07 | 
c1ccc(-c2ccnc3c2ccc2c(-c4ccccc4)ccnc23)cc1 [4,7-Ph2-phen, 4,7-diphenyl-1,10-phenanthroline] |  |  |  |  |  | 0.3 ± 0.02 | 4.4 ± 0.13 | 
c1ccc(-c2ccccn2)nc1 [Bipy, 2,2′-bipyridine] |  |  |  |  |  | > 50 | > 50 | 
c1cnc2c(c1)ccc1cccnc12 [Phen, 1,10-phenanthroline] |  |  |  |  |  | 1.6 ± 0.03 | > 50 | 
O=C1[O][V](=[O])[O]C(=O)c2cccc1n2.c1ccc(-c2ncc[nH]2)nc1 [complex 1, [VO(dipic)(pyim)]] | > 50 | 15 ± 0.02 | > 50 µM | 20.2 ± 0.04 | –0.04 |  |  | 
COc1ccnc2c1ccc1c(OC)ccnc12 [4,7-(CH3O)2-phen, 4,7-dimethoxy-1,10-phenanthroline] |  |  |  |  |  | 0.3 ± 0.05 | 10 ± 0.01 | 

Source: PMC10350923, “In Vitro and In Vivo Biological Activities of Dipicolinate Oxovanadium(IV) Complexes” (Journal of Medicinal Chemistry, 2023)
